Patent US20210244704A1, “Cabazitaxel in mCRPC Patients Previously Treated with Docetaxel and Who Failed a Prior androgen signaling targeted inhibitor Agent” (SANOFI MATURE IP, priority 2019, published 2021)
Marks after values point to notes of the source that are not given here.

System: HRQL of mCRPC patients
Assay: Same clinical study: health-related quality of life, FACT-P questionnaire
Format: in vivo, human
Experimental: Pain response was defined as a decrease≥30% from baseline in BPI-SF pain intensity score with no increased analgesic use. HRQL was assessed using the Functional Assessment of Cancer Therapy-Prostate (FACT-P) questionnaire. Pain intensity was defined using item 3 of the validated Brief Pain Inventory-Short Form (BPI-SF), which rates pain at its worst in the last 24 hours on a scale of 0 (no pain) to 10 (worst imaginable pain). Analgesic consumption was reported by local investigators and coded by the World Health Organization's analgesic ladder (0=no analgesic; 1=non-opioid analgesics; 2=opioid analgesics for moderate pain; 3=opioids for severe pain). […] A clinically meaningful improvement or deterioration of total FACT-P score was defined as a difference of ±10 points from baseline. Clinically meaningful changes in HRQL and pain response were confirmed at two consecutive evaluations≥3 weeks apart during the on-treatment period. Survival curves were generated by Kaplan-Meier estimates.
Time to deterioration was defined on two consecutive evaluations, ≥3 weeks apart as follows: • decrease of ≥10 points from baseline for FACT-P total score • decrease of ≥3 points from baseline for physical, social, emotional and functional well-being • decrease of ≥2 points from baseline for the pain PCS subscale • decrease of ≥9 points from baseline for FACT-G total and FACT-P TOI subscales
FACT-P, a validated 39-item questionnaire evaluated 5 wellbeing domains: physical (PWB, 0-28), social and family (SWB, 0-28), emotional (EWB, 0-24), functional (FWB, 0-28), and prostate specific (PCS, 0-48).
Total FACT-P score (PWB+SWB+EWB+FWB+PCS; 0-156), total FACT-G score (PWB+SWB+EWB+FWB; 0-108), FACT-P trial outcome index (PWB+FWB+PCS; 0-104), and PCS-Pain were calculated. The FACT-P overall score ranges from 0 to 156, higher values indicating a higher HRQL
To control for type I error due to multiple comparisons, a hierarchical testing procedure was applied for the primary and key secondary end points. […] Further tests were stopped once a comparison was found not statistically significant at two-sided alpha level of 0.05. Descriptive statistics for FACT-P and EQ-5D-5L scores were provided for all cycles for which the number of evaluable patients reached ≥20% of the PRO population. For qualitative parameters, proportions of patients with deterioration, no change, and improvement were provided.
The comparison of changes from baseline on PROs was analyzed using a mixed linear repeated measures model where treatment is a fixed effect variable and subject is a random effect variable. Stratification variables were included in the model as covariates as well as the interaction treatment visit. The least square means by treatment group with the corresponding 95% CI obtained from the mixed model were presented graphically. No adjustments for multiplicity were made.
Compliance with the planned assessment schedule was calculated at baseline and for each treatment cycle as the proportion of patients still receiving study treatment at this time point. No formal imputation for missing data was carried out and reasons for missing data were not centrally recorded. FACT-P total score was evaluable when >80% of questions were answered. For individual FACT-P subscales, a score was evaluable when >50% of the questions in the subscale domain were answered. If <50% of the questions were missing in any FACT-P subscale, the subscale score could be imputed by prorated subscale scores using the following formula: Prorated subscale score=[Sum of question scores]×[N of questions in subscale][…][N of questions answered].

[1] = cabazitaxel vs abiraterone or enzalutamide
[2] = cabazitaxel vs abiraterone or enzalutamide, all cycles
[3] = cabazitaxel vs abiraterone or enzalutamide, end of treatment visit

CO[C@H]1C(=O)[C@]2(C)[C@@H](OC)C[C@H]3OC[C@@]3(OC(C)=O)[C@H]2[C@H](OC(=O)c2ccccc2)[C@]2(O)C[C@H](OC(=O)[C@H](O)[C@@H](NC(=O)OC(C)(C)C)c3ccccc3)C(C)=C1C2(C)C [Cabazitaxel, 4α-acetoxy-2α-benzoyloxy-5β,20-epoxy-1p-hydroxy-7β,10β-dimethoxy-9-oxo-11-taxen-13α-yl (2R,3S)-3-tert-butoxycarbonylamino-2-hydroxy-3-phenylpropionate]
Deterioration in FACT-P from baseline: 22.2%
Emotional well-being, Kaplan-Meier probability of no deterioration at 3 months (3 months): 91.1
FACT-G total, Kaplan-Meier probability of no deterioration at 3 months (3 months): 82.3
FACT-P total, Kaplan-Meier probability of no deterioration at 3 months (3 months): 86.2
Functional well-being, Kaplan-Meier probability of no deterioration at 3 months (3 months): 73.7
Pain-related subscale, Kaplan-Meier probability of no deterioration at 3 months (3 months): 81.6
Physical well-being, Kaplan-Meier probability of no deterioration at 3 months (3 months): 76.0
Prostate-specific concerns, Kaplan-Meier probability of no deterioration at 3 months (3 months): 83.6
Social or family well-being, Kaplan-Meier probability of no deterioration at 3 months (3 months): 78.7
Trial outcome index, Kaplan-Meier probability of no deterioration at 3 months (3 months): 86.1
FACT-P total, deterioration events (Table 6): 29.6%
Emotional well-being, time to deterioration HR [1]: 0.46**
FACT-G total, time to deterioration HR [1]: 0.71
FACT-P total, time to deterioration HR [1]: 0.72
Functional well-being, time to deterioration HR [1]: 0.81
Pain-related subscale, time to deterioration HR [1]: 0.74
Physical well-being, time to deterioration HR [1]: 0.82
Prostate-specific concerns, time to deterioration HR [1]: 0.68
Social or family well-being, time to deterioration HR [1]: 1.03
Trial outcome index, time to deterioration HR [1]: 0.65
Pain-related subscale score change from baseline, least squares mean difference [2]: +1.12 to +2.26
Social or family well-being change from baseline, mean difference [2]: −0.37 to −2.25
FACT-P total score change from baseline, mean difference [3]: +4.58
Pain-related subscale score change from baseline, mean difference [3]: +0.62
Social or family well-being change from baseline, mean difference [3]: −0.94
FACT-P total score change from baseline, least squares mean difference (cabazitaxel vs abiraterone or enzalutamide, until Cycle 5): +2.67 to +5.21
Emotional well-being, deterioration events (human, in vivo): 16.7%
Emotional well-being, deterioration events n/nT (human, in vivo): 18/108
Emotional well-being, median time to deterioration (human, in vivo): NE (NE-NE)
FACT-G total, deterioration events (human, in vivo): 27.8%
FACT-G total, deterioration events n/nT (human, in vivo): 30/108
FACT-G total, median time to deterioration (human, in vivo): 14.8 (8.8-NE) months
FACT-P total, deterioration events n/nT (human, in vivo): 32/108
FACT-P total, median time to deterioration (human, in vivo): 14.8 (6.3-NE) months
Functional well-being, deterioration events (human, in vivo): 36.1%
Functional well-being, deterioration events n/nT (human, in vivo): 39/108
Functional well-being, median time to deterioration (human, in vivo): NE (5.9-NE)
Improvement in total FACT-P score from baseline (human, in vivo): 25.0%
Pain-related subscale, deterioration events (human, in vivo): 33.3%
Pain-related subscale, deterioration events n/nT (human, in vivo): 36/108
Pain-related subscale, median time to deterioration (human, in vivo): 10.4 (8.5-NE) months
Physical well-being, deterioration events (human, in vivo): 36.1%
Physical well-being, deterioration events n/nT (human, in vivo): 39/108
Physical well-being, median time to deterioration (human, in vivo): 14.8 (4.9-NE) months
Prostate-specific concerns, deterioration events (human, in vivo): 32.4%
Prostate-specific concerns, deterioration events n/nT (human, in vivo): 35/108
Prostate-specific concerns, median time to deterioration (human, in vivo): 14.8 (9.8-NE) months
Social or family well-being, deterioration events (human, in vivo): 32.4%
Social or family well-being, deterioration events n/nT (human, in vivo): 35/108
Social or family well-being, median time to deterioration (human, in vivo): 14.8 (7.9-14.8) months
Trial outcome index, deterioration events (human, in vivo): 26.9%
Trial outcome index, deterioration events n/nT (human, in vivo): 29/108
Trial outcome index, median time to deterioration (human, in vivo): 14.8 (8.5-NE) months
FACT-P total, median time to deterioration (human, in vivo, listed as cabazitaxel): 14.8 months
Improvement in total FACT-P score from baseline (±10 points, confirmed): 27 patients
